Data published in US7109380B2, “Cyclopentenedione antifungal compounds and methods for their use” (The University of Mississippi, priority 2004, dated 2006).
≈ marks a conversion by molar mass, not a printed value.

Legend:
Format in all cases: cell-based
[1] = tested on: M. intracellulare ATCC 23068; assay: In vitro antibacterial assay (modified method of Franzblau, Alamar Blue); details: Mycobacterium intracellulare
Phomopsis obscurans = assay: 96-well microtiter fungal growth assay
From the text: (§1) Pathogen collection. Isolates of Colletotrichum acutatum Simmonds, Colletotrichum fragariae Brooks, and Colletotrichum gloeosporioides (Penz.) Penz. & Sacc. in Penz. were obtained from B. J. Smith, USDA, ARS, Small Fruit Research Station, Poplarville, Mass. Colletotrichum fragariae (isolate CF63), C. acutatum (isolate CAGoff), and C. gloeosporioides (isolate CG162) were used for all pathogen and bioautography studies. Isolate CF63 is one of the most virulent isolates at infecting strawberry plants and inducing both crown and fruit rot (Smith and Black, 1990). CF63, CAGoff, and CG162 were used as standard test isolates because of our extensive knowledge of these isolates and their known fungicide sensitivity profiles in both bioautography and microtiter formats. The three Colletotrichum species were isolated from strawberry (Fragaria xananassa Duchesne). Botrytis cinerea Pers.:Fr, was isolated from commercial grape (Vitis vinifera L.) and Fusarium oxysporum Schlechtend:Fr from orchid (Cynoches sp.) by David E. Wedge, USDA ARS Natural Products Utilization Research Unit. Phomopsis viticola (Sacc.) and P. obscurans (Ellis & Everh.) Sutton were from Mike A. Ellis, Ohio State University, Wooster, Ohio. Fungi were grown on potato-dextrose agar (PDA, Difco, Detroit Mich.) in 9 cm petri dishes and incubated in a growth chamber at 24±2° C. and under cool-white fluorescent lights ([…]·m^−2·sec^−1 light) with 12-h photoperiod.
(§2) Inoculum preparation. Conidia were harvested from 7–10 day-old cultures by flooding plates with 5 mL of sterile distilled water and dislodging conidia by softly brushing the colonies with an L-shaped glass rod. Conidial suspensions were filtered through sterile miracloth (Calbiochem-Novabiochem Corp., La Jolla Calif.) to remove mycelia. Conidia concentrations were determined photometrically, from a standard curve based on the absorbance at 625 nm and suspensions were then adjusted with sterile distilled water to a concentration of 1.0×10^6 conidia/mL.
(§3) Microtiter assay. A standardized 96-well microtiter plate assay developed for discovery of natural product fungicidal agents. A 96-well microtiter assay was used to determine sensitivity of B. cinerea, C. acutatum, C. fragariae, C. gloeosporioides, F. oxysporum, Phomopsis viticola, and P. obscurans to the various antifungal agents in comparison with known fungicidal standards. Vinclozolin, captan, and thiabendazole, which represent three different modes of action, were used as standards in this experiment. Each fungus was challenged in a dose-response format using test compounds where the final treatment concentrations were 0.3, 3.0 and 30.0 μM. Microtiter plates (Nunc MicroWell, untreated; Roskilde, Denmark) were covered with a plastic lid and incubated in a growth chamber at 24±1 C and 12 h photoperiod under 60±5 μmol light. Growth was then evaluated by measuring absorbance of each well at 620 nm using a microplate photometer (Packard Spectra Count, Packard Instrument Co., Downers Grove, Ill.).
(§4) Microbioassay Experimental Design. Chemical sensitivity of each fungus 96-well microtiter assay is used to determine sensitivity of B. cinerea, C. acutatum, C. fragariae, C. gloeosporioides, F. oxysporum, Phomopsis viticola, and P. obscurans. Each chemical is evaluated in duplicate at each dose (0.3, 3.0 and 30.0 μM) and repeated twice in time. Sixteen wells containing broth and inoculum serves as positive controls, eight wells containing solvent at the appropriate concentration and broth without inoculum are used as negative controls. […] Treatments are arranged as a split-plot design replicated twice in time. Whole-plots were fungal isolates and sub-plots are chemicals. Each dose level and response time is analyzed separately. The SAS system's analysis of variance procedure (Statistical Analysis System, Cary, N.C.) is used to identify significant factors and Fisher's protected LSD is used to separate means.

Phomopsis viticola = assay: 96-well microtiter fungal growth assay;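 on Mean percent fungal growth inhibition of Phomopsis viticola: percent relative to untreated positive growth controls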
From the text: as §1, §2, §3, §4

Structure (SMILES): COC(/C=C/c1ccccc1)=C1\C(=O)C=C(C)C1=O [Compound 1, coruscanone A]
- IC50 ([1]; ATCC23068, read-out: IC50 (50% inhibitory concentration)): 1.5 µg/mL (≈ 5.9 µM)
- MIC ([1]; ATCC23068, M. intracellulare ATCC 23068): 2.5 µg/mL (≈ 9.83 µM)
- MBC ([1]; ATCC23068, M. intracellulare ATCC 23068, read-out: MBC (Minimum Bactericidal Concentration)): 5 µg/mL (≈ 19.7 µM)
- Percent change in fungal growth vs control (negative = inhibition) (Phomopsis obscurans; 0.3 μm, 120 hrs): 3.3 ± 19.9%
- Percent change in fungal growth vs control (negative = inhibition) (Phomopsis obscurans; 0.3 μm, 144 hrs): 33.3 ± 41.6%
- Percent change in fungal growth vs control (negative = inhibition) (Phomopsis obscurans; 3.0 μm, 120 hrs): −37.4 ± 25.0%
- Percent change in fungal growth vs control (negative = inhibition) (Phomopsis obscurans; 3.0 μm, 144 hrs): −13.3 ± 36.0%
- Percent change in fungal growth vs control (negative = inhibition) (Phomopsis obscurans; 30 μm, 120 hrs): −88.5 ± 3.4%
- Percent change in fungal growth vs control (negative = inhibition) (Phomopsis obscurans; 30 μm, 144 hrs): −96.9 ± 1.2%
- IC50 (Phomopsis obscurans; Paraphomopsis obscurans, Phomopis obscurans, at 120 hr, read-out: IC50 (growth inhibition)): < 3.1 µM
- Mean percent fungal growth inhibition of Phomopsis viticola (Phomopsis viticola; 0.3 μm, 120 hrs): 7.4 ± 124.1%
- Mean percent fungal growth inhibition of Phomopsis viticola (Phomopsis viticola; 0.3 μm, 144 hrs): 423.2 ± 185.3%
- Mean percent fungal growth inhibition of Phomopsis viticola (Phomopsis viticola; 3.0 μm, 120 hrs): −71.1 ± 50.9%
- Mean percent fungal growth inhibition of Phomopsis viticola (Phomopsis viticola; 3.0 μm, 144 hrs): −71.3 ± 15.7%
- Mean percent fungal growth inhibition of Phomopsis viticola (Phomopsis viticola; 30 μm, 120 hrs): −61.8 ± 86.8%
- Mean percent fungal growth inhibition of Phomopsis viticola (Phomopsis viticola; 30 μm, 144 hrs): −79.1 ± 13.3%
- IC50 (Phomopsis viticola; Diaporthe ampelina, 72 h, read-out: IC50 (growth inhibition)): < 1.55 µM
